Values joined by “and” are separate entries in the source; they are usually repeats but may differ in a detail not shown here. Equal entries are not always repeated. Toxic doses and inconclusive results are not listed. Rule as the data show it: active = T/C of 150% or more; inactive = T/C below 125%.
Tested on: L1210 leukemia ip in BDF1 mice, survival T/C
Assay: NCI In Vivo Anticancer Drug Screen. Data for tumor model L1210 Leukemia (intraperitoneal) in B6D2F1 (BDF1) mice
Settings: endpoint: mean survival time, higher = longer survival
How it was run: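 Tumor cells were implanted, animals were treated, and survival was followed. The result divides the treated measurement by the vehicle-control measurement.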

[1] = dose: 100.0 mg/kg/injection, schedule: Q01DX001 (ip), vehicle: carboxymethylcellulose (CMC)
[2] = dose: 200.0 mg/kg/injection, schedule: Q01DX001 (ip), vehicle: carboxymethylcellulose (CMC)
[3] = dose: 400.0 mg/kg/injection, schedule: Q01DX001 (ip), vehicle: carboxymethylcellulose (CMC)
[4] = dose: 100.0 mg/kg/injection, schedule: Q01DX009 (ip), vehicle: carboxymethylcellulose (CMC)
[5] = dose: 100.0 mg/kg/injection, schedule: Q04DX002 (ip), vehicle: carboxymethylcellulose (CMC)
[6] = dose: 100.0 mg/kg/injection, schedule: Q04DX003 (ip), vehicle: carboxymethylcellulose (CMC)
[7] = dose: 200.0 mg/kg/injection, schedule: Q01DX009 (ip), vehicle: carboxymethylcellulose (CMC)
[8] = dose: 200.0 mg/kg/injection, schedule: Q04DX002 (ip), vehicle: carboxymethylcellulose (CMC)
[9] = dose: 200.0 mg/kg/injection, schedule: Q04DX003 (ip), vehicle: carboxymethylcellulose (CMC)
[10] = dose: 400.0 mg/kg/injection, schedule: Q01DX009 (ip), vehicle: carboxymethylcellulose (CMC)
[11] = dose: 400.0 mg/kg/injection, schedule: Q04DX002 (ip), vehicle: carboxymethylcellulose (CMC)
[12] = dose: 400.0 mg/kg/injection, schedule: Q04DX003 (ip), vehicle: carboxymethylcellulose (CMC)
[13] = dose: 50.0 mg/kg/injection, schedule: Q01DX001 (ip), vehicle: carboxymethylcellulose (CMC)
[14] = dose: 100.0 mg/kg/injection, schedule: Q04DX003 (ip), vehicle: Klucel (hydroxypropylcellulose) (HPC)
[15] = dose: 200.0 mg/kg/injection, schedule: Q04DX003 (ip), vehicle: Klucel (hydroxypropylcellulose) (HPC)
[16] = dose: 400.0 mg/kg/injection, schedule: Q04DX003 (ip), vehicle: Klucel (hydroxypropylcellulose) (HPC)
[17] = dose: 100.0 mg/kg/injection, schedule: Q01DX009 (ip), vehicle: saline with Tween-80
[18] = dose: 200.0 mg/kg/injection, schedule: Q01DX009 (ip), vehicle: saline with Tween-80
[19] = dose: 100.0 mg/kg/injection, schedule: Q01DX009 (ip), vehicle: saline
[20] = dose: 100.0 mg/kg/injection, schedule: Q04DX002 (ip), vehicle: Klucel (hydroxypropylcellulose) (HPC)
[21] = dose: 200.0 mg/kg/injection, schedule: Q04DX002 (ip), vehicle: Klucel (hydroxypropylcellulose) (HPC)
[22] = dose: 400.0 mg/kg/injection, schedule: Q04DX002 (ip), vehicle: Klucel (hydroxypropylcellulose) (HPC)
[23] = dose: 25.0 mg/kg/injection, schedule: Q01DX009 (ip), vehicle: saline

Measured: T/C

COc1ccc(-c2ccc(OC)cc2OC)c(OC)c1
inactive: [1] 112 % of control | [2] 107 % of control | [3] 112 % of control

[N-]=[N+]=Nc1ccc(S(=O)(=O)Nc2ncccn2)cc1
inactive: [1] 113 % of control | [4] 93 % of control | [5] 100 % of control and 108 % of control | [6] 104 % of control | [2] 108 % of control | [7] 88 % of control | [8] 102 % of control and 103 % of control | [9] 96 % of control | [3] 90 % of control | [10] 98 % of control | [11] 103 % of control and 107 % of control | [12] 110 % of control

Cc1ccccc1NP1(=O)OCCCN1Cc1ccccc1Cl (centres undefined)
inactive: [13] 104 % of control | [1] 96 % of control | [2] 98 % of control | [3] 95 % of control

COc1ccc(C(=O)c2ccccc2)c(O)c1
inactive: [14] 101 % of control | [15] 97 % of control | [16] 90 % of control

COc1cccc(/C=C/C(=O)C2CCCCC2)c1
inactive: dose: 50.0 mg/kg/injection, schedule: Q01DX009 (ip), vehicle: saline with Tween-80 101 % of control | [17] 97 % of control | [18] 101 % of control

CCC(SC(CC)C(=O)O)C(=O)O (centres undefined)
inactive: dose: 100.0 mg/kg/injection, schedule: Q01DX001 (ip), vehicle: saline 98 % of control | dose: 200.0 mg/kg/injection, schedule: Q01DX001 (ip), vehicle: saline 94 % of control

Cc1ccc(NC(=O)c2ccccc2)cc1[As]=[As]c1cc(NC(=O)c2ccccc2)ccc1C (centres undefined)
inactive: dose: 1.0 mg/kg/injection, schedule: Q01DX015 (ip), vehicle: carboxymethylcellulose (CMC) 90 % of control | dose: 2.0 mg/kg/injection, schedule: Q01DX015 (ip), vehicle: carboxymethylcellulose (CMC) 95 % of control | dose: 4.0 mg/kg/injection, schedule: Q01DX015 (ip), vehicle: carboxymethylcellulose (CMC) 101 % of control

CCCCCCCCCCCCOc1ccc(C(=O)O)cc1
inactive: dose: 50.0 mg/kg/injection, schedule: Q01DX001 (ip), vehicle: other 100 % of control | dose: 100.0 mg/kg/injection, schedule: Q01DX001 (ip), vehicle: other 100 % of control | dose: 200.0 mg/kg/injection, schedule: Q01DX001 (ip), vehicle: other 93 % of control | dose: 400.0 mg/kg/injection, schedule: Q01DX001 (ip), vehicle: other 93 % of control

O=[N+]([O-])CC(O)c1ccc2ccccc2n1 (centres undefined)
inactive: dose: 50.0 mg/kg/injection, schedule: Q01DX009 (ip), vehicle: water 100 % of control | [19] 91 % of control | dose: 100.0 mg/kg/injection, schedule: Q01DX009 (ip), vehicle: water 100 % of control | dose: 100.0 mg/kg/injection, schedule: Q04DX003 (ip), vehicle: saline 93 % of control | dose: 200.0 mg/kg/injection, schedule: Q01DX009 (ip), vehicle: saline 94 % of control | dose: 200.0 mg/kg/injection, schedule: Q01DX009 (ip), vehicle: water 87 % of control | dose: 200.0 mg/kg/injection, schedule: Q04DX003 (ip), vehicle: saline 90 % of control

O=C(Nc1ccccc1C(F)(F)F)Nc1cccc2c(O)cccc12
inactive: [1] 93 % of control and 100 % of control | [4] 100 % of control and 91 % of control | [5] 86 % of control | [6] 88 % of control and 91 % of control | [2] 93 % of control and 89 % of control | [7] 100 % of control and 103 % of control | [8] 96 % of control and 89 % of control | [9] 97 % of control and 88 % of control | [3] 94 % of control and 90 % of control | [10] 96 % of control and 91 % of control | [11] 89 % of control and 90 % of control | [12] 97 % of control and 88 % of control

COC1OC(COS(C)(=O)=O)C(OS(C)(=O)=O)C(OC(=O)c2ccccc2)C1OS(C)(=O)=O (centres undefined)
inactive: [20] 111 % of control | [21] 97 % of control | [22] 97 % of control

CS(=O)(=O)OCCCN(CCCOS(C)(=O)=O)c1ccc(C=Nc2ccc(-c3csc(COc4ccc(Br)cc4)n3)cc2)cc1
inactive: [17] 95 % of control | [18] 95 % of control

NC(=O)C(N)CCCN=C(N)N (centres undefined)
inactive: dose: 37.5 mg/kg/injection, schedule: Q01DX001 (ip), vehicle: Klucel (hydroxypropylcellulose) (HPC) 103 % of control | dose: 75.0 mg/kg/injection, schedule: Q01DX001 (ip), vehicle: Klucel (hydroxypropylcellulose) (HPC) 116 % of control | dose: 150.0 mg/kg/injection, schedule: Q01DX001 (ip), vehicle: Klucel (hydroxypropylcellulose) (HPC) 100 % of control

COc1ccc(-c2c(CC(=O)O)c3cc(OC)ccc3n2Cc2ccc(Cl)cc2)cc1
inactive: dose: 65.0 mg/kg/injection, schedule: Q01DX Z (ip), vehicle: carboxymethylcellulose (CMC) 94 % of control | dose: 125.0 mg/kg/injection, schedule: Q01DX Z (ip), vehicle: carboxymethylcellulose (CMC) 98 % of control | dose: 250.0 mg/kg/injection, schedule: Q01DX Z (ip), vehicle: carboxymethylcellulose (CMC) 107 % of control | dose: 500.0 mg/kg/injection, schedule: Q01DX Z (ip), vehicle: carboxymethylcellulose (CMC) 94 % of control | dose: 750.0 mg/kg/injection, schedule: Q01DX Z (ip), vehicle: carboxymethylcellulose (CMC) 90 % of control | dose: 875.0 mg/kg/injection, schedule: Q01DX Z (ip), vehicle: carboxymethylcellulose (CMC) 91 % of control

CC1CC(C)(C)[N+]2=C(CCCC2)O1 (centres undefined)
inactive: dose: 6.25 mg/kg/injection, schedule: Q01DX009 (ip), vehicle: saline 96 % of control | dose: 12.5 mg/kg/injection, schedule: Q01DX009 (ip), vehicle: saline 94 % of control | [23] 103 % of control

O=C(Nc1ccccc1Cl)N(Cc1ccccc1)c1ccccc1
inactive: dose: 100.0 mg/kg/injection, schedule: Q01DX009 (ip), vehicle: Klucel (hydroxypropylcellulose) (HPC) 99 % of control | [14] 96 % of control | dose: 200.0 mg/kg/injection, schedule: Q01DX009 (ip), vehicle: Klucel (hydroxypropylcellulose) (HPC) 91 % of control | [15] 94 % of control | dose: 400.0 mg/kg/injection, schedule: Q01DX009 (ip), vehicle: Klucel (hydroxypropylcellulose) (HPC) 94 % of control | [16] 96 % of control

N#Cc1cc(C(N)=O)c(N)nc1SCc1ccccc1
inactive: dose: 50.0 mg/kg/injection, schedule: Q01DX001 (ip), vehicle: Klucel (hydroxypropylcellulose) (HPC) 94 % of control | dose: 100.0 mg/kg/injection, schedule: Q01DX001 (ip), vehicle: Klucel (hydroxypropylcellulose) (HPC) 86 % of control | dose: 200.0 mg/kg/injection, schedule: Q01DX001 (ip), vehicle: Klucel (hydroxypropylcellulose) (HPC) 91 % of control

C/C(=C\C(=O)/C=C(\C)NCc1ccccc1)NCc1ccccc1
inactive: [14] 98 % of control | [15] 100 % of control | [16] 93 % of control

Cc1ccc(/C=N\N=C\c2ccc(C)cc2)cc1
inactive: [17] 96 % of control | [18] 91 % of control

CC(C)CCO[Si](C)(C)CCl
inactive: [13] 103 % of control | [1] 103 % of control | [2] 97 % of control | [3] 103 % of control

C1CC2CC3OC3CC12 (centres undefined)
inactive: [20] 95 % of control | [21] 92 % of control | [22] 92 % of control

CC(C)[As](=O)(O)O
inactive: [23] 97 % of control | dose: 50.0 mg/kg/injection, schedule: Q01DX009 (ip), vehicle: saline 90 % of control | [19] 104 % of control and 106 % of control

Nc1ccc(C(=O)OCCCCC2CCCC2N)cc1 (centres undefined)
inactive: dose: 75.0 mg/kg/injection, schedule: Q01DX001 (ip), vehicle: saline 97 % of control | dose: 150.0 mg/kg/injection, schedule: Q01DX001 (ip), vehicle: saline 113 % of control

O=c1[nH]c(-c2ccccc2)c(Br)c(=O)[nH]1
inactive: dose: 100.0 mg/kg/injection, schedule: Q04DX003 (ip), vehicle: saline with Tween-80 97 % of control | dose: 200.0 mg/kg/injection, schedule: Q04DX003 (ip), vehicle: saline with Tween-80 107 % of control | dose: 400.0 mg/kg/injection, schedule: Q04DX003 (ip), vehicle: saline with Tween-80 100 % of control

Reference: PubChem BioAssay AID248 (DTP/NCI, 2004)
